20 compounds from patent US7807701B2, “Dibenzylamine compounds and pharmaceutical use thereof” (Japan Tobacco Inc., priority 2002, dated 2010) can be followed below.

The assay deals with T1, CETP (Homo sapiens, UniProt P11597).
T1 construct: The donor lipoprotein obtained above was added to plasma of healthy subject; from tissue; host or cells: whole plasma of healthy subject
T1 sequence (P11597 18-493): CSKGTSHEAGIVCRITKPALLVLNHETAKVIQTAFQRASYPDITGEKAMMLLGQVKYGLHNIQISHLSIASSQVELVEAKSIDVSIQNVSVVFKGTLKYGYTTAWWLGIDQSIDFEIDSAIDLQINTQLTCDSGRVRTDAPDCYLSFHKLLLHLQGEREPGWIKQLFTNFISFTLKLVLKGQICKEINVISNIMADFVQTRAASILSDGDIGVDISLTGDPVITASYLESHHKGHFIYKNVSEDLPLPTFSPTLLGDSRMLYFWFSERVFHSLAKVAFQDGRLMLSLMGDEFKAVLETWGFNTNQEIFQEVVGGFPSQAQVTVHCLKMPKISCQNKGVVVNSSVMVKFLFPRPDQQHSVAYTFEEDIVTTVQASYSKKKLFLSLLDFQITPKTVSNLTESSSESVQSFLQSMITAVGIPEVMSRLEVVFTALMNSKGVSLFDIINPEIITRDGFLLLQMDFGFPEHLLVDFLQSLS
The experiment in a line: Inhibitory effect in vitro on CETP activity in total plasma. The class given is biochemical. Particulars: plasma of healthy subject with [3H]CE-HDL3, 37° C., 4 hr; average values. The method, then:
Potassium bromide (KBr) was added to plasma (40 mL) of healthy subject and the mixture was adjusted to have a specific density d=1.125 g/mL. The mixture was subjected to density gradient centrifugation (227,000×g, 4° C., 17 hr) and a fraction showing a specific density of d>1.125 g/mL (HDL3 fraction) was harvested. The obtained fraction was dialyzed against PBS solution [10 mmol/L Na2HPO4; 10 mmol/L NaH2PO4; 0.15 mol/L NaCl; […] (pH 7.4)]. Then, tritium-labeled cholesterol (37 MBq) was dissolved in 95% ethanol, gradually added to the above-mentioned HDL3 fraction with stirring and incubated at 37° C. for 18 hr. [By this operation, tritium-labeled cholesterol was esterified by the action of lecithin acyl transferase (LCAT) present on the HDL3 surface and taken up into HDL3 as tritium-labeled cholesteryl ester ([^3H]CE)]. After incubation, KBr was added, the mixture was adjusted to have a specific density d=1.21 g/mL, subjected to density gradient centrifugation (227,000×g, 4° C., 17 hr) and a fraction of specific density […] was harvested. The obtained fraction was dialyzed against the aforementioned PBS solution to give HDL3 incorporating [^3H]CE ([^3H]CE-HDL3, specific density: 1.125<d<1.21, specific activity: 10,000 dpm/μL), which was used as a donor lipoprotein.
The donor lipoprotein obtained above was added to plasma of healthy subject to prepare a [^3H]CE-HDL3-containing plasma (1,000 dpm/μL). The compound was dissolved in dimethyl formamide. A solution of the compound or a solvent alone (2 μL) and the [^3H]CE-HDL3-containing plasma (100 μL) were added into a microtube, and this was incubated at 37° C. or 4° C. for 4 hr. After ice-cooling, TBS solution [100 μL, 20 mmol/L Tris; 0.15 mol/L NaCl (pH 7.4)] containing 1 mol/L magnesium chloride and 2% dextran sulfate was added to each microtube and the mixture was thoroughly stirred. After keeping at 4° C. for 30 min, the mixture was centrifuged (10,000×g, 4° C., 10 min), and the radioactivity in the obtained supernatant (HDL fraction) was measured with a scintillation counter. […] The concentration of the compound necessary for inhibiting the CETP activity by 50% was calculated as an IC50 value.

SMILES strings stand for the structures. pIC50: −log10 of the molar value. Where a name gives a salt, the structure may show the parent alone.

Regarding `CCN(CC1CCCC1)c1cc2c(cc1CN(Cc1cc(C(F)(F)F)cc(C(F)(F)F)c1)c1nnn(C)n1)CCCC2` [Example 1, N-[3-(N′-cyclopentylmethyl-N′-ethylamino)-5,6,7,8-tetrahydronaphthalen-2-ylmethyl]-N-[3,5-bis(trifluoromethyl)benzyl]-(2-methyl-2H-tetrazol-5-yl)amine], the pIC50 (in general, the negative decadic logarithm of the IC50, by convention in mol/L) is 6.64.

For `CCN(CC1CCCC1)c1cc2c(cc1CN(Cc1cc(C#N)cc(C(F)(F)F)c1)c1nnn(C)n1)CCCC2` [Example 2, 3-{[N-[3-(N′-cyclopentylmethyl-N′-ethylamino)-5,6,7,8-tetrahydronaphthalen-2-ylmethyl]-N-(2-methyl-2H-tetrazol-5-yl)amino]methyl}-5-trifluoromethylbenzonitrile], the pIC50 is 7.10.

Compound `CCN(CC1CCCC1)c1cc2c(cc1CN(Cc1cc(C(F)(F)F)cc(C(F)(F)F)c1)c1nnn(C)n1)CCC2` [Example 3, N-[3,5-bis(trifluoromethyl)benzyl]-N-[6-(N′-cyclopentylmethyl-N′-ethylamino)indan-5-ylmethyl]-(2-methyl-2H-tetrazol-5-yl)amine] gave a pIC50 of 6.62.

Compound `CCN(CC1CCCC1)c1cc2c(cc1CN(Cc1cc(C(F)(F)F)cc(C(F)(F)F)c1)c1nnn(C)n1)CCC2` [Example 4, N-[3,5-bis(trifluoromethyl)benzyl]-N-[6-(N′-cyclopentylmethyl-N′-ethylamino)indan-5-ylmethyl]-(2-methyl-2H-tetrazol-5-yl)amine hydrochloride] showed a pIC50 of 6.74.

`CCN(CC1CCCC1)c1cc2c(cc1CN(Cc1cc(C(F)(F)F)cc(C(F)(F)F)c1)c1cc(C)[nH]n1)CCC2` [Example 7, N-[6-(N′-cyclopentylmethyl-N′-ethylamino)indan-5-ylmethyl]-N-[3,5-bis(trifluoromethyl)benzyl]-(5-methyl-1H-pyrazol-3-yl)amine] showed a pIC50 of 6.57.

Compound `CCN(CCCCC(=O)O)c1cc2c(cc1CN(Cc1cc(C(F)(F)F)cc(C(F)(F)F)c1)c1noc(C)n1)CCC2` [Example 8, 5-{N-(6-{[N′-[3,5-bis(trifluoromethyl)benzyl]-N′-(5-methyl-[1,2,4]oxadiazol-3-yl)amino]methyl}indan-5-yl)-N-ethylamino}pentanoic acid hydrochloride] gave a pIC50 of 6.20.

As for `CCN(CC1CCCC1)c1cc2c(cc1CN(Cc1cc(C#N)cc(C(F)(F)F)c1)c1nnn(C)n1)CCC2` [Example 10, 3-{[N-[6-(N′-cyclopentylmethyl-N′-ethylamino)indan-5-ylmethyl]-N-(2-methyl-2H-tetrazol-5-yl)amino]methyl}-5-trifluoromethylbenzonitrile], the pIC50 was 6.64.

Regarding `CCN(CC1CCCC1)c1cc2c(cc1CN(Cc1cc(C(F)(F)F)cc(C(F)(F)F)c1)c1nnn(CC)n1)CCC2` [Example 11, N-[3,5-bis(trifluoromethyl)benzyl]-N-[6-(N′-cyclopentylmethyl-N′-ethylamino)indan-5-ylmethyl]-(2-ethyl-2H-tetrazol-5-yl)amine], the pIC50 was 6.20.

`CCN(CC1CCCC1)c1cc2c(cc1CN(Cc1cc(C(F)(F)F)cc(C(F)(F)F)c1)c1ncn(C)n1)CCC2` [Example 12, N-[3,5-bis(trifluoromethyl)benzyl]-N-[6-(N′-cyclopentylmethyl-N′-ethylamino)indan-5-ylmethyl]-(1-methyl-1H-[1,2,4]triazol-3-yl)amine]: the pIC50 was 6.60.

Compound `CCN(CC1CCCC1)c1cc2c(cc1CN(Cc1cc(C#N)cc(C(F)(F)F)c1)c1ccccc1)CCC2` [Example 13, 3-({N-[6-(N′-cyclopentylmethyl-N′-ethylamino)indan-5-ylmethyl]-N-phenylamino}methyl)-5-trifluoromethylbenzonitrile] had a pIC50 of 6.24.

As for `CCN(CC1CCCC1)c1cc2c(cc1CN(Cc1cc(C(F)(F)F)cc(C(F)(F)F)c1)c1cc(C)no1)CCC2` [Example 26, N-[3,5-bis(trifluoromethyl)benzyl]-N-[6-(N′-cyclopentylmethyl-N′-ethylamino)indan-5-ylmethyl]-(3-methylisoxazol-5-yl)amine hydrochloride], the pIC50 was 6.33.

With `CCN(CC1CCCC1)c1cc2c(cc1CN(Cc1cc(C(F)(F)F)cc(C(F)(F)F)c1)c1ccn(C)n1)CCC2` [Example 27, N-[3,5-bis(trifluoromethyl)benzyl]-N-[6-(N′-cyclopentylmethyl-N′-ethylamino)indan-5-ylmethyl]-(1-methyl-1H-pyrazol-3-yl)amine hydrochloride], the pIC50 is 6.24.

As to `CCN(CC1CCCC1)c1cc2c(cc1CN(Cc1cc(C(F)(F)F)cc(C(F)(F)F)c1)c1cnn(C)c1)CCC2` [Example 28, N-[3,5-bis(trifluoromethyl)benzyl]-N-[6-(N′-cyclopentylmethyl-N′-ethylamino)indan-5-ylmethyl]-(1-methyl-1H-pyrazol-4-yl)amine hydrochloride], the pIC50 was 6.36.

Compound `CCN(CC1CCCC1)c1ccc(C(F)(F)F)cc1CN(Cc1cc(C(F)(F)F)cc(C(F)(F)F)c1)c1nnn(C)n1` [Example 33, N-[3,5-bis(trifluoromethyl)benzyl]-N-[2-(N′-cyclopentylmethyl-N′-ethylamino)-5-trifluoromethylbenzyl]-(2-methyl-2H-tetrazol-5-yl)amine hydrochloride] gave a pIC50 of 6.25.

Consider `CCN(CC1CCCC1)c1ccc(C(F)(F)F)cc1CN(Cc1cc(C#N)cc(C(F)(F)F)c1)c1nnn(C)n1` [Example 34, 3-{[N-[2-(N′-cyclopentylmethyl-N′-ethylamino)-5-trifluoromethylbenzyl]-N-(2-methyl-2H-tetrazol-5-yl)amino]methyl}-5-trifluoromethylbenzonitrile hydrochloride], for which the pIC50 was 6.66.

Compound `CCN(CCCCC(=O)OC)c1cc2c(cc1CN(Cc1cc(C#N)cc(C(F)(F)F)c1)c1nnn(C)n1)CCC2.Cl` [Example 36, hydrochloride] showed a pIC50 of 6.47.

Consider `CCN(C[C@H]1CC[C@H](C(=O)OC)CC1)c1cc2c(cc1CN(Cc1cc(C(F)(F)F)cc(C(F)(F)F)c1)c1ccn(C)n1)CCCC2` [Example 42, methyl trans-4-{[N-(3-{[N′-[3,5-bis(trifluoromethyl)benzyl]-N′-(1-methyl-1H-pyrazol-3-yl)amino]methyl}-5,6,7,8-tetrahydronaphthalen-2-yl)-N-ethylamino]methyl}cyclohexanecarboxylate hydrochloride], for which the pIC50 was 6.15.

`CCN(C[C@H]1CC[C@H](C(=O)OC)CC1)c1cc2c(cc1CN(Cc1cc(C#N)cc(C(F)(F)F)c1)c1ccn(C)n1)CCCC2` [Example 43, methyl trans-4-{[N-(3-{[N′-(3-cyano-5-trifluoromethylbenzyl)-N′-(1-methyl-1H-pyrazol-3-yl)amino]methyl}-5,6,7,8-tetrahydronaphthalen-2-yl)-N-ethylamino]methyl}cyclohexanecarboxylate hydrochloride] had a pIC50 of 6.26.

The compound `CCN(C[C@H]1CC[C@H](C(=O)O)CC1)c1cc2c(cc1CN(Cc1cc(C(F)(F)F)cc(C(F)(F)F)c1)c1ccn(C)n1)CCCC2` [Example 44, trans-4-{[N-(3-{[N′-[3,5-bis(trifluoromethyl)benzyl]-N′-(1-methyl-1H-pyrazol-3-yl)amino]methyl}-5,6,7,8-tetrahydronaphthalen-2-yl)-N-ethylamino]methyl}cyclohexanecarboxylic acid hydrochloride] had a pIC50 of 6.44.

As for `CCN(C[C@H]1CC[C@H](C(=O)O)CC1)c1cc2c(cc1CN(Cc1cc(C#N)cc(C(F)(F)F)c1)c1ccn(C)n1)CCCC2` [Example 45, trans-4-{[N-(3-{[N′-(3-cyano-5-trifluoromethylbenzyl)-N′-(1-methyl-1H-pyrazol-3-yl)amino]methyl}-5,6,7,8-tetrahydronaphthalen-2-yl)-N-ethylamino]methyl}cyclohexanecarboxylic acid hydrochloride], the pIC50 was 6.31.
